Where two headings read alike, the source gives them in different places.
Molecular target: T1, chimeric human H3 receptor (Homo sapiens, UniProt Q9Y5N1)
T1 construct: made in house; host or cells: Sf9 insect cells (baculovirus); P2 membrane preparation
Experiment: Chimeric human H3 receptor screening GTP binding assay (inhibition of histamine-stimulated GTP-gamma35S binding, Example 8)
Format: biochemical
Settings: 4 μM of the compound, 1 μM histamine, read-out: percent inhibition of the signal obtained with 1 μM histamine
Description: This Example illustrates a representative screening assay for evaluating inhibition of histamine-stimulated GTP-gamma^35S binding. Such GTP binding activity can be used to identify H3 antagonists and inverse agonists. A compound analyzed in this assay is referred to herein as a “test compound,” and the initial identification of antagonists and inverse agonists is performed using a test compound concentration of 4 μM.
Four independent baculoviral stocks (one directing the expression of the chimeric human H3 receptor and three directing the expression of each of the three subunits of a heterotrimeric G-protein) are used to infect a culture of Sf9 cells as described above. P2 membranes are prepared as described above, and are resuspended by Dounce homogenization (tight pestle) in GTP binding assay buffer (50 mM Tris pH 7.4, 120 mM NaCl, 5 mM MgCl2, 2 mM EGTA, 1 mg/ml BSA, 0.2 mg/ml bacitracin, 0.02 mg/ml aprotinin, 0.01 mg/ml saponin, 10 μM GDP) and added to assay tubes at a concentration of 35 μg protein/reaction tube. Non-radiolabeled test compounds are added to separate reactions at a concentration of 4 μM along with 1 μM histamine (agonist). Reactions are initiated by the addition of […] GTP-gamma^35S with a final assay volume of 0.20 ml.
After a 60-min incubation at room temperature, reactions are terminated by vacuum filtration over GF/C filters (pre-soaked in 50 mM Tris pH 7.4, 120 mM NaCl plus 0.1% BSA) followed by washing with ice-cold buffer (50 mM Tris pH 7.4, 120 mM NaCl). The amount of receptor-bound (and thereby membrane-bound) GTP-gamma^35S is determined by measuring the bound radioactivity, preferably by liquid scintillation spectrometry of the washed filters. Non-specific binding is determined using 10 uM GTP-gammaS and typically represents less than 5 percent of total binding. After subtraction of non-specific binding, data is expressed as percent inhibition of 1 μM histamine signal.
Neutral antagonists are those test compounds that reduce the histamine-stimulated GTP binding activity towards, but not below, baseline levels. In contrast, in the absence of added histamine, inverse agonists reduce the GTP binding activity of the receptor-containing membranes below baseline. Any test compound that elevates GTP binding activity above baseline in the absence of added histamine in this assay is defined as having agonist activity.

T1 sequence (Q9Y5N1 with tags, fused parts or gaps): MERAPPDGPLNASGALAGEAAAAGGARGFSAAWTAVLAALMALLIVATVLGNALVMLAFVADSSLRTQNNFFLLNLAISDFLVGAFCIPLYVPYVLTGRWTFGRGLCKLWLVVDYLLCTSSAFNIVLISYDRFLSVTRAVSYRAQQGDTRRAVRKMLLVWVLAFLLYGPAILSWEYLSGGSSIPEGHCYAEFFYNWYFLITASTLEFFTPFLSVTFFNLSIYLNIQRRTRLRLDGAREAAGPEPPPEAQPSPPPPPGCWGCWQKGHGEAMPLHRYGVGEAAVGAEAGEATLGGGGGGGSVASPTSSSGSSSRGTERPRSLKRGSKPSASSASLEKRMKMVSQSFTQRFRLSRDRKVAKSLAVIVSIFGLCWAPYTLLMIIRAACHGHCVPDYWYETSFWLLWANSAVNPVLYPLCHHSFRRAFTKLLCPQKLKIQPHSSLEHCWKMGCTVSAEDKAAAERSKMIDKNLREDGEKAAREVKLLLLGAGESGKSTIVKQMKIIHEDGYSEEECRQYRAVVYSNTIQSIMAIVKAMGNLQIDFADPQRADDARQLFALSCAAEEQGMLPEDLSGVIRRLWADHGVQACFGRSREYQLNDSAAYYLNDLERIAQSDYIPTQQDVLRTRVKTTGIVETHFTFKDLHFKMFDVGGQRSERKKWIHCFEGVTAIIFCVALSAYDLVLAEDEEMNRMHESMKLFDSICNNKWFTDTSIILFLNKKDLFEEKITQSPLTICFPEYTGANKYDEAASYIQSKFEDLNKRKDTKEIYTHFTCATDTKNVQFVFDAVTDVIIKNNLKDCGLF

Row | inhibition at 4 µM ("†" in Ki of Table II) | inhibition at 4 µM (Table II "Ki", symbol †) | Compound
1 | – | ≥ 90% | O=C(CN1CCc2cc(-c3ccc(F)c(F)c3)ccc2C1)N1CCN(C2CCCCC2)CC1 [Compound 591, 2-[2-(4-cyclohexylpiperazin-1-yl)-2-oxoethyl]-6-(3,4-difluorophenyl)-1,2,3,4-tetrahydroisoquinoline]
2 | – | ≥ 90% | COc1ccc(C(C)C)cc1-c1ccc2c(c1)CCN(CC(=O)N1CCN(C3CCC3)CC1)C2 [Compound 554, 2-[2-(4-cyclobutylpiperazin-1-yl)-2-oxoethyl]-6-(5-isopropyl-2-methoxyphenyl)-1,2,3,4-tetrahydroisoquinoline]
3 | ≥ 90% | – | CC(C)(C)c1ccc(-c2ccc3c(c2)CCN(CC(=O)N2CCN(C4CCCCC4)CC2)C3)cc1 [Compound 473, 6-(4-tert-butylphenyl)-2-[2-(4-cyclohexylpiperazin-1-yl)-2-oxoethyl]-1,2,3,4-tetrahydroisoquinoline]
4 | – | ≥ 90% | CCOc1ccc(-c2ccc3c(c2)CCN(CC(=O)N2CCN(C4CCCCC4)CC2)C3)cc1 [Compound 530, 2-[2-(4-cyclohexylpiperazin-1-yl)-2-oxoethyl]-6-(4-ethoxyphenyl)-1,2,3,4-tetrahydroisoquinoline]
5 | ≥ 90% | – | CCc1ccc(-c2ccc3c(c2)CCN(CC(=O)N2CCN(C4CCCCC4)CC2)C3)cc1 [Compound 461, 2-[2-(4-cyclohexylpiperazin-1-yl)-2-oxoethyl]-6-(4-ethylphenyl)-1,2,3,4-tetrahydroisoquinoline]
6 | – | ≥ 90% | COc1ccc(F)cc1-c1ccc2c(c1)CCN(CC(=O)N1CCN(C3CCCC3)CC1)C2 [Compound 571, 2-[2-(4-cyclopentylpiperazin-1-yl)-2-oxoethyl]-6-(5-fluoro-2-methoxyphenyl)-1,2,3,4-tetrahydroisoquinoline]
7 | ≥ 90% | – | Cc1cccc(-c2ccc3c(c2)CCN(CC(=O)N2CCN(C4CCCCC4)CC2)C3)c1 [Compound 434, 2-[2-(4-cyclohexylpiperazin-1-yl)-2-oxoethyl]-6-(3-methylphenyl)-1,2,3,4-tetrahydroisoquinoline]
8 | ≥ 90% | – | Cc1ccc(-c2ccc3c(c2)CCN(CC(=O)N2CCN(C4CCCC4)CC2)C3)cc1F [Compound 427, 2-[2-(4-cyclopentylpiperazin-1-yl)-2-oxoethyl]-6-(3-fluoro-4-methylphenyl)-1,2,3,4-tetrahydroisoquinoline]
9 | – | ≥ 90% | COc1ccc(C)cc1-c1ccc2c(c1)CCN(CC(=O)N1CCN(C3CCCCC3)CC1)C2 [Compound 574, 2-[2-(4-cyclohexylpiperazin-1-yl)-2-oxoethyl]-6-(2-methoxy-5-methylphenyl)-1,2,3,4-tetrahydroisoquinoline]
10 | ≥ 90% | – | O=C(CN1CCc2cc(-c3ccccc3F)ccc2C1)N1CCN(C2CCCC2)CC1 [Compound 415, 2-[2-(4-cyclopentylpiperazin-1-yl)-2-oxoethyl]-6-(2-fluorophenyl)-1,2,3,4-tetrahydroisoquinoline]
11 | ≥ 90% | – | Cc1cc(-c2ccc3c(c2)CCN(CC(=O)N2CCN(C4CCC4)CC2)C3)ccc1F [Compound 429, 2-[2-(4-cyclobutylpiperazin-1-yl)-2-oxoethyl]-6-(4-fluoro-3-methylphenyl)-1,2,3,4-tetrahydroisoquinoline]
12 | – | ≥ 90% | COc1ccc(Cl)cc1-c1ccc2c(c1)CCN(CC(=O)N1CCN(C3CCCCC3)CC1)C2 [Compound 558, 6-(5-chloro-2-methoxyphenyl)-2-[2-(4-cyclohexylpiperazin-1-yl)-2-oxoethyl]-1,2,3,4-tetrahydroisoquinoline]
13 | ≥ 90% | – | Cc1cc(-c2ccc3c(c2)CCN(CC(=O)N2CCN(C4CCCC4)CC2)C3)ccc1F [Compound 430, 2-[2-(4-cyclopentylpiperazin-1-yl)-2-oxoethyl]-6-(4-fluoro-3-methylphenyl)-1,2,3,4-tetrahydroisoquinoline]
14 | ≥ 90% | – | O=C(CN1CCc2cc(-c3cccc(Cl)c3)ccc2C1)N1CCN(C2CCC2)CC1 [Compound 401, 6-(3-chlorophenyl)-2-[2-(4-cyclobutylpiperazin-1-yl)-2-oxoethyl]-1,2,3,4-tetrahydroisoquinoline]
15 | – | ≥ 90% | O=C(CN1CCc2cc(-c3cc(F)ccc3F)ccc2C1)N1CCN(C2CCCC2)CC1 [Compound 583, 2-[2-(4-cyclopentylpiperazin-1-yl)-2-oxoethyl]-6-(2,5-difluorophenyl)-1,2,3,4-tetrahydroisoquinoline]
16 | – | ≥ 90% | O=C(CN1CCc2cc(-c3ccc(F)cc3F)ccc2C1)N1CCN(C2CCCCC2)CC1 [Compound 588, 2-[2-(4-cyclohexylpiperazin-1-yl)-2-oxoethyl]-6-(2,4-difluorophenyl)-1,2,3,4-tetrahydroisoquinoline]

Further lines, the compound ahead of its results:

Row | Compound | inhibition at 4 µM ("†" in Ki of Table II) | inhibition at 4 µM (Table II "Ki", symbol †)
17 | CC(C)N1CCN(C(=O)CN2CCc3cc(-c4ccc5c(c4)OCCO5)ccc3C2)CC1 [Compound 385, 6-(2,3-dihydro-1,4-benzodioxin-6-yl)-2-[2-(4-isopropylpiperazin-1-yl)-2-oxoethyl]-1,2,3,4-tetrahydroisoquinoline] | ≥ 90% | –
18 | O=C(CN1CCc2cc(-c3ccccc3)ccc2C1)N1CCN(C2CCC2)CC1 [Compound 398, 2-[2-(4-cyclobutylpiperazin-1-yl)-2-oxoethyl]-6-phenyl-1,2,3,4-tetrahydroisoquinoline] | ≥ 90% | –
19 | O=C(CN1CCc2cc(-c3cccc(OC(F)(F)F)c3)ccc2C1)N1CCN(C2CCCCC2)CC1 [Compound 492, 2-[2-(4-cyclohexylpiperazin-1-yl)-2-oxoethyl]-6-[3-(trifluoromethoxy)phenyl]-1,2,3,4-tetrahydroisoquinoline] | – | ≥ 90%
20 | CC(C)c1ccc(-c2ccc3c(c2)CCN(CC(=O)N2CCN(C(C)C)CC2)C3)cc1 [Compound 446, 6-(4-isopropylphenyl)-2-[2-(4-isopropylpiperazin-1-yl)-2-oxoethyl]-1,2,3,4-tetrahydroisoquinoline] | ≥ 90% | –
21 | O=C(CN1CCc2cc(-c3cncnc3)ccc2C1)N1CCN(C2C[C@H]3CC[C@@H]2C3)CC1 (stereo partly drawn) [Compound 623, 2-(2-{4-[(1R,4S)-bicyclo[2.2.1]hept-2-yl]piperazin-1-yl}-2-oxoethyl)-6-pyrimidin-5-yl-1,2,3,4-tetrahydroisoquinoline] | – | ≥ 90%
22 | CCC(C)N1CCN(C(=O)CN2CCc3cc(-c4cncnc4)ccc3C2)C[C@H]1C (stereo partly drawn) [Compound 606, 2-{2-[(3R)-4-sec-butyl-3-methylpiperazin-1-yl]-2-oxoethyl}-6-pyrimidin-5-yl-1,2,3,4-tetrahydroisoquinoline] | – | ≥ 90%
23 | CC(C)N1CCN(C(=O)CN2CCc3cc(-c4ccc5ccccc5c4)ccc3C2)CC1 [Compound 419, 2-[2-(4-isopropylpiperazin-1-yl)-2-oxoethyl]-6-(2-naphthyl)-1,2,3,4-tetrahydroisoquinoline] | ≥ 90% | –
24 | O=C(CN1CCc2cc(-c3cccc4c3oc3ccccc34)ccc2C1)N1CCN(C2CCC2)CC1 [Compound 388, 2-[2-(4-cyclobutylpiperazin-1-yl)-2-oxoethyl]-6-dibenzo[b,d]furan-4-yl-1,2,3,4-tetrahydroisoquinoline] | ≥ 90% | –
25 | CCCOCCNc1ccc2c(n1)CCN(CC(=O)N1CCN(C3CCC3)CC1)C2 [Compound 669, 6-[2-(4-cyclobutylpiperazin-1-yl)-2-oxoethyl]-N-(2-propoxyethyl)-5,6,7,8-tetrahydro-1,6-naphthyridin-2-amine] | – | ≥ 90%
26 | COc1ccc(-c2ccc(-c3ccc4c(c3)CCN(CC(=O)N3CCN(C5CCC5)CC3)C4)cc2)cc1 [Compound 498, 2-[2-(4-cyclobutylpiperazin-1-yl)-2-oxoethyl]-6-(4′-methoxybiphenyl-4-yl)-1,2,3,4-tetrahydroisoquinoline] | – | ≥ 90%
27 | CC(C)N1CCN(C(=O)CN2CCc3cc(-c4cccc(F)c4)ccc3C2)CC1 [Compound 413, 6-(3-fluorophenyl)-2-[2-(4-isopropylpiperazin-1-yl)-2-oxoethyl]-1,2,3,4-tetrahydroisoquinoline] | ≥ 90% | –
28 | O=C(CN1CCc2cc(-c3cccc(F)c3F)ccc2C1)N1CCN(C2CCC2)CC1 [Compound 599, 2-[2-(4-cyclobutylpiperazin-1-yl)-2-oxoethyl]-6-(2,3-difluorophenyl)-1,2,3,4-tetrahydroisoquinoline] | – | ≥ 90%
29 | CC(C)Oc1cccc(-c2ccc3c(c2)CCN(CC(=O)N2CCN(C(C)C)CC2)C3)c1 [Compound 515, 6-(3-isopropoxyphenyl)-2-[2-(4-isopropylpiperazin-1-yl)-2-oxoethyl]-1,2,3,4-tetrahydroisoquinoline] | – | ≥ 90%
